Calls of active or inactive are those of the source. The rule behind the calls is not given here.
Legend:
K562 = test: Antiproliferative activity against human K562 cells assessed as inhibition of cell growth; type: functional
Enterococcus faecalis = test: Antimicrobial activity against vancomycin-resistant Enterococcus faecalis 1528 R10 by agar diffusion assay; type: functional, organism-based
HEK293 = test: Antiproliferative activity against human HEK293 cells assessed as inhibition of cell growth; type: functional
[1] = test system: Sporobolomyces salmonicolor; test: Antimicrobial activity against Sporidiobolus salmonicolor 549 H4 by agar diffusion assay; type: functional, organism-based
Bacillus subtilis = test: Antimicrobial activity against Bacillus subtilis 6633 B1 by agar diffusion assay; type: functional, organism-based
Mycolicibacterium vaccae = test: Antimicrobial activity against Mycobacterium vaccae 10670 M4 by agar diffusion assay; type: functional, organism-based
Candida albicans = test: Antimicrobial activity against Candida albicans H8 by agar diffusion assay; type: functional, organism-based
HepG2 = test: Antiproliferative activity against human HepG2 cells assessed as inhibition of cell growth; type: functional
Raji = test: Antiproliferative activity against human Raji cells assessed as inhibition of cell growth; type: functional
Pseudomonas aeruginosa = test: Antimicrobial activity against Pseudomonas aeruginosa SG137 B7 by agar diffusion assay; type: functional, organism-based
MCF7 = test: Antiproliferative activity against human MCF7 cells assessed as inhibition of cell growth; type: functional
Penicillium chrysogenum = test: Antimicrobial activity against Penicillium notatum JP36 P1 by agar diffusion assay; type: functional, organism-based
Escherichia coli = test: Antimicrobial activity against Escherichia coli 458 B4 by agar diffusion assay; type: functional, organism-based
THP-1 = test: Antiproliferative activity against human THP1 cells assessed as inhibition of cell growth; type: functional
HeLa = test: Cytotoxicity against human HeLa cells; type: functional
Staphylococcus aureus [2] = test: Antimicrobial activity against methicillin-resistant Staphylococcus aureus 134/93R9 by agar diffusion assay; type: functional, organism-based
[3] = Antiproliferative activity against HUVEC assessed as inhibition of cell growth; type: cell-based; conditions: human, HUVEC cells
Staphylococcus aureus [4] = test: Antimicrobial activity against Staphylococcus aureus 511 B3 by agar diffusion assay; type: functional, organism-based

SMILES	GI50 (K562) [µM]	Activity (Enterococcus faecalis)	GI50 (HEK293) [µM]	Activity [1]	Activity (Bacillus subtilis)	Activity (Mycolicibacterium vaccae)	Activity (Candida albicans)	GI50 (HepG2) [µM]	GI50 (Raji) [µM]	Activity (Pseudomonas aeruginosa)	GI50 (MCF7) [µM]	Activity (Penicillium chrysogenum)	Activity (Escherichia coli)	GI50 (THP-1) [µM]	CC50 (HeLa) [µM]	Activity (Staphylococcus aureus [2])	GI50 [3] [µM]	Activity (Staphylococcus aureus [4])
O=C(CO)Nc1cc2nc3cc(CO)ccc3oc-2cc1=O [CHANDRANANIMYCIN D]	16.6	inactive	10.3	inactive	inactive	inactive	inactive	6.6	9.6	inactive	1.3	inactive	inactive	27.6	90.6	inactive	5.3	inactive
CC(=O)N[C@@H](CSc1c2nc3cc(C(=O)O)ccc3oc-2cc(=O)c1N)C(=O)O [GRIXAZONE B]	> 76.4														> 120		> 120	
NC(=O)C1=C(N)[C@@H](O)[C@H](O)[C@@H](Nc2cc3nc4cc(CO)ccc4oc-3cc2=O)C1=O [PITUCAMYCIN]	27.6	inactive		inactive	inactive	inactive	inactive			inactive		inactive	inactive		74.8	inactive	36.6	inactive
